The record followed here is patent publication US4877746A, “Methods of carrying out assays for lipoproteins and apolipoproteins” (Pharmacia AB, priority 1985, dated 1989).

Structures are written as SMILES. Counter-ions that a name gives are not always drawn.

For one test, the system named is Lp(a). Briefly: Sandwich immunoassay (method 1.2) of serum after prior art delipidating pretreatment, tracer uptake. The format is binding. As to the method:
(§1) 50 μl from the reaction mixture of step 1 was diluted according to the dilution scheme 1/18-1/54-1/162-[…]-1/1458-1/4374. Each dilution was mixed with 50 μl of mouse antiapo(a) ^125 I and incubated for 1 hour at RT, whereupon 50 μl of goat antiapo(a) was added. The reaction mixture was kept standing for 0.5 hours at RT. This was followed by precipitation of the resultant complex with the aid of solid-phase-bound anti-antibodies (2 ml Decanting Suspension, 0.5 hr and RT). The suspension was centrifuged, the supernatant then being removed by decantation and discarded.
Equal volumes of serum and pretreating solution were mixed and incubated for 2-16 hours, whereupon the sample was diluted 20-fold with phosphate buffer I. The testing method according to 1.2 was then applied to the reaction solutions. […]
The results are presented as % binding of total amount of tracer added

For the next test, the system named is apo(a). Put plainly: Immunoassay (sandwich, mouse antiapo(a) 125I) of apo(a) in serum after pretreatment at acidic and alkaline pH. The test is classed as binding. Particulars: for apo(a) concentration read off after acidic pretreatment: acidic pH, 20 h; for apo(a) concentration read off after acidic pretreatment / apo(a) concentration read off after alkaline pretreatment: 1:1 with serum, RT; for apo(a) concentration read off after alkaline pretreatment: alkaline pH. How it is done:
(a) Alkaline pH. Equal volumes of serum and 0.13 M NaOH were mixed and incubated at room temperature (=RT) for 2 hours, whereupon phosphate buffer I was added up to an 18-fold dilution of the sample.
(b) Acidic pH. Equal volumes of serum and 0.2 M HCl were mixed and incubated at RT for 20 hours, whereupon phosphate buffer I was added up to an 18-fold dilution of the sample.
(c) Alkaline buffer system. Equal volumes of serum and 0.2 M trisodium phosphate were mixed and incubated at RT for 1 hour, whereupon phosphate buffer I was added up to an 18-fold dilution of the sample.
as §1
In separation experiments goat antiapo(a) was replaced with sheep antiapo(a) and monoclonal antiapo(a). These antibodies were tested in soluble as well as in solid-phase-bound form. Decanting suspension was excluded when solid-phase-bound antiapo(a)s were used.

[1] abbreviates: dilution 1/20, first concentration: SDS 0.5%, urea 4 M, guanidine HCl 2 M, Triton 2%, Renex 1%, lipase 500 U/l.
[2] abbreviates: dilution 1/20, second concentration: SDS 2.5%, urea 6 M, guanidine HCl 6 M, Triton 10%, Renex 5%, lipase 100 U/l.
The mark [3] stands for this setting: dilution 1/60, first concentration: SDS 0.5%, urea 4 M, guanidine HCl 2 M, Triton 2%, Renex 1%, lipase 500 U/l.
The mark [4] stands for this setting: dilution 1/60, second concentration: SDS 2.5%, urea 6 M, guanidine HCl 6 M, Triton 10%, Renex 5%, lipase 100 U/l.
[5] abbreviates: dilution 1/180, first concentration: SDS 0.5%, urea 4 M, guanidine HCl 2 M, Triton 2%, Renex 1%, lipase 500 U/l.
Setting [6] is: dilution 1/180, second concentration: SDS 2.5%, urea 6 M, guanidine HCl 6 M, Triton 10%, Renex 5%, lipase 100 U/l.
[7] abbreviates: dilution 1/540, first concentration: SDS 0.5%, urea 4 M, guanidine HCl 2 M, Triton 2%, Renex 1%, lipase 500 U/l.
[8] abbreviates: dilution 1/540, second concentration: SDS 2.5%, urea 6 M, guanidine HCl 6 M, Triton 10%, Renex 5%, lipase 100 U/l.

For `N=C(N)N` [GUANIDINE HCl, Guanidine - HCl], the “% binding of total amount of tracer added (uptake)” value (from here on “% binding”) is 10.0% in the test with Lp(a) (setting [1]); 10.7% with Lp(a) (setting [2]); 5.6% in the test with Lp(a) (setting [3]); 6.3% in the test on Lp(a) (setting [4]); 3.6% in the test on Lp(a) (setting [5]); 4.1% in the test on Lp(a) (setting [6]). Also, the “% binding” value came out at 3.1% in the test on Lp(a) (setting [7]) and 3.3% in the test with Lp(a) (setting [8]).
`O=P(O)(O)O` [H3 PO4]: the “apo(a) concentration read off after acidic pretreatment” value in the test on apo(a) (0.2 M pretreating solution) was 28.4 U/l.
For the molecule `Cl` [HCl, hydrochloric acid], the “apo(a) concentration read off after acidic pretreatment” value in the test with apo(a) (0.2 M pretreating solution) is on record as 41.0 U/l.
On to `O=P([O-])([O-])[O-].[Na+].[Na+].[Na+]` [Na3 PO4, trisodium phosphate], for which the “apo(a) concentration read off after alkaline pretreatment” value in the test on apo(a) (0.2 M pretreating solution, 1 h) was determined as 354 U/l.
For `[Na+].[OH-]` [NaOH, sodium hydroxide], the “uptake on increased treatment time” value in the test with apo(a) (0.13 M NaOH, longer treatment time, given dilution) is reported as “the uptake was lowered”. In addition, the “apo(a) concentration read off after alkaline pretreatment” value in the test with apo(a) (0.13 M pretreating solution, 2 h) amounted to 333 U/l. In the test on apo(a) (sodium hydroxide solution versus hydrochloric acid solution), the effectiveness of pretreatment entry is “far more effective than a hydrochloric acid solution”.
On to `CCCCCCCCCCCCOS(=O)(=O)[O-].[Na+]` [SDS, sodium dodecyl sulfate], for which the “% binding” value in the test on Lp(a) (setting [1]) is reported as 10.1%; in the test on Lp(a) (setting [2]), 18.8%; with Lp(a) (setting [3]), 5.3%; with Lp(a) (setting [4]), 13.3%; with Lp(a) (setting [5]), 3.6%; with Lp(a) (setting [6]), 7.0%. The “% binding” value is given as 3.0% with Lp(a) (setting [7]) and 4.5% in the test with Lp(a) (setting [8]).
In the case of `NC(N)=O` [UREA, Urea], the “% binding” value in the test on Lp(a) (setting [1]) is on record as 10.0%; in the test with Lp(a) (setting [2]) it was 9.6%; in the test on Lp(a) (setting [3]), 5.4%; with Lp(a) (setting [4]), 5.3%; in the test with Lp(a) (setting [5]), 3.6%; with Lp(a) (setting [6]), 3.8%. Also, the “% binding” value with Lp(a) (setting [7]) is reported as 3.2%; with Lp(a) (setting [8]) it was 3.1%.
In the case of `O=C(O)CC(O)(CC(=O)O)C(=O)O` [citric acid], in the test on apo(a) (0.2 M pretreating solution), the “apo(a) concentration read off after acidic pretreatment” value is 25.2 U/l.
